Key:
HCV RNA = assay: Emax PK/PD modeling of sofosbuvir exposure vs HCV RNA change from baseline; format: in vivo; conditions: 400 mg sofosbuvir dose
Description: The sofosbuvir dose selected for the tablet formulation is 400 mg once daily. Support for the 400 mg sofosbuvir dose can be derived from Emax PK/PD modeling with early virological and human exposure data which also supports the selection of a 400 mg sofosbuvir dose over others tested.
The mean sofosbuvir major metabolite AUCtau for the 400 mg sofosbuvir dose is associated with approximately 77% of the maximal HCV RNA change from baseline achievable as determined by this model, a value which is on the cusp of the plateau of the exposure-response sigmoidal curve. In a sigmoidal Emax model, there is a relatively linear exposure-response relationship in the 20 to 80% maximal effect range. Therefore, given that sofosbuvir exposure with 200 mg tablets appears dose-proportional with single doses up to 1200 mg, doses below 400 mg are expected to yield considerable reductions in the magnitude of HCV RNA change from baseline.

BCS classification = format: physicochemical
[1] = Photostability (light exposure, ICH Q1B); format: physicochemical; conditions: for Total Imp./Deg. Products (%): tablets
Description: In some embodiments, and the Examples presented herein, the tablet formulation includes sofosbuvir having Form 6 and, optionally, a trace amount of Form 7.
Tablet cores and film-coated tablets were evaluated per ICH Q1B guidelines with a total of illumination of more than 1.2 million-lux hours and a total irradiance of more than 200 W·hr/m^2.

[2] = Storage stability: appearance, assay/label strength (LS), total impurities/degradation products; format: physicochemical; conditions: for I/D (%): tablets, desiccant study
Description: In some embodiments, the film-coated tablets were packaged in 75 and 100 mL white HDPE bottles (Lots A and B, respectively, as described in Tables 11A, 11B) with 1 g silica gel desiccant canisters and a polyester fiber coil. The 75 and 100 mL HDPE bottles contained fourteen and twenty eight tablets, respectively. Each HDPE bottle was capped using a white, continuous thread, child-resistant polypropylene screw cap with an […], aluminum-faced line. The packaged tablets (14 and 28 counts) were evaluated for stability at 40° C./75% RH and 25° C./60% RH. Additionally, the 14-count bottles (without cap) were evaluated for stability under open conditions at 40° C./75% RH.
For each of the impact studies, the sofosbuvir/velpatasvir SSD/voxilaprevir SSD tablets were packaged in a designated commercial packaging configuration (28-count, 100 mL HPDE bottle, coil, 1 g desiccant), and stored for 12 weeks at 25° C./60% RH and 40° C./75% RH. Tablets were also packaged in open containers (28-count, 100 mL HPDE bottle without cap) and stored for 4 weeks at 40° C./75% RH and for 1 week at 50° C./92% RH.
The sofosbuvir/velpatasvir SSD/voxilaprevir SSD tablets were packaged in the designated commercial packaging configuration (28-count, 100 mL HPDE bottle, coil, 1 g desiccant), and stored for 6 months at 25° C./60% RH and 40° C./75% RH.

CC(C)OC(=O)C(C)N[P@](=O)(OC[C@H]1O[C@@H](n2ccc(=O)[nH]c2=O)[C@](C)(F)[C@@H]1O)Oc1ccccc1 (stereo in doubt) [Sofosbuvir, (S)-isopropyl 2-(((S)-(((2R,3R,4R,5R)-5-(2,4-dioxo-3,4-dihydropyrimidin-1(2H)-yl)-4-fluoro-3-hydroxy-4-methyltetrahydrofuran-2-yl)methoxy)(phenoxy)phosphoryl)amino)propanoate]
fraction of the maximal HCV RNA change from baseline achievable (Emax model) associated with mean major metabolite AUCtau (HCV RNA): approximately 77%
aqueous solubility, pH dependence (BCS classification): high and pH-independent aqueous solubility
level of degradation products ([1]; tablets film-coated to weight gains of 2.1 to 5.4%, ICH Q1B): 0.0%
Total Imp./Deg. Products (%) ([1]; film-coating 0% weight gain, Exposed to Light): 0.0%
Total Imp./Deg. Products (%) ([1]; film-coating 0% weight gain, Protected from Light): 0.0%
Total Imp./Deg. Products (%) ([1]; film-coating 2.1% weight gain, Exposed to Light): 0.0%
Total Imp./Deg. Products (%) ([1]; film-coating 2.1% weight gain, Protected from Light): 0.0%
Total Imp./Deg. Products (%) ([1]; film-coating 3.4% weight gain, Exposed to Light): 0.0%
Total Imp./Deg. Products (%) ([1]; film-coating 3.4% weight gain, Protected from Light): 0.0%
Total Imp./Deg. Products (%) ([1]; film-coating 4.1% weight gain, Exposed to Light): 0.0%
Total Imp./Deg. Products (%) ([1]; film-coating 4.1% weight gain, Protected from Light): 0.0%
Total Imp./Deg. Products (%) ([1]; film-coating 5.4% weight gain, Exposed to Light): 0.0%
Total Imp./Deg. Products (%) ([1]; film-coating 5.4% weight gain, Protected from Light): 0.0%
Total Imp./Deg. (%) ([2]; Batch C tablets, closed 1 g desiccant, 25° C./60% RH, 3 months): 0.0%
Total Imp./Deg. (%) ([2]; Batch C tablets, closed 1 g desiccant, 25° C./60% RH, 6 months): 0.0%
Total Imp./Deg. (%) ([2]; Batch C tablets, closed 1 g desiccant, 30° C./75% RH, 3 months): 0.0%
Total Imp./Deg. (%) ([2]; Batch C tablets, closed 1 g desiccant, 30° C./75% RH, 6 months): 0.0%
Total Imp./Deg. (%) ([2]; Batch C tablets, closed 1 g desiccant, 40° C./75% RH, 1 month): 0.0%
Total Imp./Deg. (%) ([2]; Batch C tablets, closed 1 g desiccant, 40° C./75% RH, 3 months): 0.0%
Total Imp./Deg. (%) ([2]; Batch C tablets, closed 1 g desiccant, 40° C./75% RH, 6 months): 0.0%
Total Imp./Deg. (%) ([2]; Batch C tablets, closed 1 g desiccant, Initial, time 0): 0.0%
Total Imp./Deg. Products (%) ([2]; SOF/VEL SSD/VOX SSD granules (Lot F), glass vials, Initial, 0 months): 0.0%
total impurities/degradation products ([2]; desiccant/packaging study tablets, all conditions, 6 months): 0.0%
total impurities/degradation products ([2]; granules (Lot F), over 6 month storage at 25° C./60% RH and 40° C./75% RH, open and closed): 0.0%
total impurities/degradation products ([2]; packaged Formulation G tablets (Tables 11A, 11B), 40° C./75% RH and 25° C./60% RH for 6 months): 0.0%
total impurities/degradation products ([2]; packaged tablets Batch A, up to 6 months under all conditions): 0.0%
total impurities/degradation products ([2]; packaged tablets Batch D, up to 1 month under all conditions): 0.0%
total impurities/degradation products ([2]; packaged tablets Batches B and C, up to 6 months under all conditions): 0.0%
total impurities/degradation products ([2]; tablet Lots A-D from sub-potent/super-potent VEL SSD and VOX SSD, all conditions): 0.0%
Total Imp./Deg. (%) ([2]; tablets Batch A, 25° C./60% RH, 3 mo): 0.0%
Total Imp./Deg. (%) ([2]; tablets Batch A, 25° C./60% RH, 6 mo): 0.0%
Total Imp./Deg. (%) ([2]; tablets Batch A, 30° C./75% RH, 3 mo): 0.0%
Total Imp./Deg. (%) ([2]; tablets Batch A, 30° C./75% RH, 6 mo): 0.0%
Total Imp./Deg. (%) ([2]; tablets Batch A, 40° C./75% RH, 1 mo): 0.0%
Total Imp./Deg. (%) ([2]; tablets Batch A, 40° C./75% RH, 3 mo): 0.0%
Total Imp./Deg. (%) ([2]; tablets Batch A, 40° C./75% RH, 6 mo): 0.0%
Total Imp./Deg. (%) ([2]; tablets Batch A, Initial, 0 mo): 0.0%
Total Imp./Deg. (%) ([2]; tablets Batch B, 25° C./60% RH, 3 mo): 0.0%
Total Imp./Deg. (%) ([2]; tablets Batch B, 25° C./60% RH, 6 mo): 0.0%
Total Imp./Deg. (%) ([2]; tablets Batch B, 30° C./75% RH, 3 mo): 0.0%
Total Imp./Deg. (%) ([2]; tablets Batch B, 30° C./75% RH, 6 mo): 0.0%
Total Imp./Deg. (%) ([2]; tablets Batch B, 40° C./75% RH, 1 mo): 0.0%
Total Imp./Deg. (%) ([2]; tablets Batch B, 40° C./75% RH, 3 mo): 0.0%
Total Imp./Deg. (%) ([2]; tablets Batch B, 40° C./75% RH, 6 mo): 0.0%
Total Imp./Deg. (%) ([2]; tablets Batch B, Initial, 0 mo): 0.0%
Total Imp./Deg. (%) ([2]; tablets Batch D, 40° C./75% RH, 1 mo): 0.0%
Total Imp./Deg. (%) ([2]; tablets Batch D, Initial, 0 mo): 0.0%
Total Imp./Deg. (%) ([2]; tablets Lot A, 25° C./60% RH Closed, 1 mo): 0.0%
Total Imp./Deg. (%) ([2]; tablets Lot A, 25° C./60% RH Closed, 3 mo): 0.0%
Total Imp./Deg. (%) ([2]; tablets Lot A, 25° C./60% RH Closed, 6 mo): 0.0%
Total Imp./Deg. (%) ([2]; tablets Lot A, 40° C./75% RH Closed, 1 mo): 0.0%
Total Imp./Deg. (%) ([2]; tablets Lot A, 40° C./75% RH Closed, 3 mo): 0.0%
Total Imp./Deg. (%) ([2]; tablets Lot A, 40° C./75% RH Closed, 6 mo): 0.0%
Total Imp./Deg. (%) ([2]; tablets Lot A, 40° C./75% RH Open, 1 mo): 0.0%
Total Imp./Deg. (%) ([2]; tablets Lot A, 40° C./75% RH Open, 3 mo): 0.0%
Total Imp./Deg. (%) ([2]; tablets Lot A, 40° C./75% RH Open, 6 mo): 0.0%
Total Imp./Deg. (%) ([2]; tablets Lot A, Initial, 0 mo): 0.0%
Total Imp./Deg. (%) ([2]; tablets Lot B, 25° C./60% RH Closed, 1 mo): 0.0%
Total Imp./Deg. (%) ([2]; tablets Lot B, 25° C./60% RH Closed, 3 mo): 0.0%
Total Imp./Deg. (%) ([2]; tablets Lot B, 25° C./60% RH Closed, 6 mo): 0.0%
Total Imp./Deg. (%) ([2]; tablets Lot B, 40° C./75% RH Closed, 1 mo): 0.0%
Total Imp./Deg. (%) ([2]; tablets Lot B, 40° C./75% RH Closed, 3 mo): 0.0%
Total Imp./Deg. (%) ([2]; tablets Lot B, 40° C./75% RH Closed, 6 mo): 0.0%
Total Imp./Deg. (%) ([2]; tablets Lot B, Initial, 0 mo): 0.0%
total impurities/degradation products ([2]; tablets from SSDs made with high-peroxide copovidone (544 ppm VEL SSD, 655 ppm VOX SSD)): 0.0%
Total Imp./Deg. (%) ([2]; tablets from VEL SSD 7.0% / VOX SSD 3.2% water content, Initial, time 0): 0.0%
Total Imp./Deg. (%) ([2]; tablets from VEL SSD 7.0% / VOX SSD 3.2% water content, closed, 1 g desiccant, 25° C./60% RH, 12 weeks): 0.0%
Total Imp./Deg. (%) ([2]; tablets from VEL SSD 7.0% / VOX SSD 3.2% water content, closed, 1 g desiccant, 40° C./75% RH, 4 weeks): 0.0%
Total Imp./Deg. (%) ([2]; tablets from VEL SSD 7.0% / VOX SSD 3.2% water content, closed, 1 g desiccant, 40° C./75% RH, 12 weeks): 0.0%
Total Imp./Deg. (%) ([2]; tablets from VEL SSD 7.0% / VOX SSD 3.2% water content, open, no desiccant, 40° C./75% RH, 4 weeks): 0.0%
total impurities/degradation products ([2]; tablets from VEL SSD with 6.0% residual ethanol and VOX SSD with 2.1% residual acetone, all conditions): 0.0%
total impurities/degradation products ([2]; tablets from VEL SSD with 7.0% and VOX SSD with 3.2% water content, all conditions): 0.0%
Total Imp./Deg. (%) ([2]; tablets from copovidone with 544 ppm (VEL SSD) / 655 ppm (VOX SSD) peroxides, Initial, time 0): 0.0%
Total Imp./Deg. (%) ([2]; tablets from copovidone with 544 ppm (VEL SSD) / 655 ppm (VOX SSD) peroxides, closed, 1 g desiccant, 25° C./60% RH, 12 weeks): 0.0%
Total Imp./Deg. (%) ([2]; tablets from copovidone with 544 ppm (VEL SSD) / 655 ppm (VOX SSD) peroxides, closed, 1 g desiccant, 40° C./75% RH, 4 weeks): 0.0%
Total Imp./Deg. (%) ([2]; tablets from copovidone with 544 ppm (VEL SSD) / 655 ppm (VOX SSD) peroxides, closed, 1 g desiccant, 40° C./75% RH, 12 weeks): 0.0%
Total Imp./Deg. (%) ([2]; tablets from copovidone with 544 ppm (VEL SSD) / 655 ppm (VOX SSD) peroxides, open, no desiccant, 40° C./75% RH, 4 weeks): 0.0%
I/D (%) ([2]; closed, 1 g desiccant, 25° C./60% RH, 12 weeks): 0.0%
I/D (%) ([2]; closed, 1 g desiccant, 25° C./60% RH, 24 weeks): 0.0%
I/D (%) ([2]; closed, 1 g desiccant, 40° C./75% RH, 4 weeks): 0.0%
I/D (%) ([2]; closed, 1 g desiccant, 40° C./75% RH, 12 weeks): 0.0%
I/D (%) ([2]; closed, 1 g desiccant, 40° C./75% RH, 24 weeks): 0.0%
I/D (%) ([2]; closed, no desiccant, 25° C./60% RH, 12 weeks): 0.0%
I/D (%) ([2]; closed, no desiccant, 25° C./60% RH, 24 weeks): 0.0%
I/D (%) ([2]; closed, no desiccant, 40° C./75% RH, 4 weeks): 0.0%
I/D (%) ([2]; closed, no desiccant, 40° C./75% RH, 12 weeks): 0.0%
I/D (%) ([2]; closed, no desiccant, 40° C./75% RH, 24 weeks): 0.0%

— patent US10912814B2, “Combination formulation of three antiviral compounds” (priority 2016, dated 2021)
